Literature values, collected in patent publication US12205808B2 (priority 2019, dated 2025).

Details: in vivo

Cc1ccc(C(=O)c2cn(CCCCCF)c3ccccc23)c2ccccc12 [MAM-2201]
Concentration in postmortem plasma samples: 16.3 ng/mL

CC(C)[C@H](NC(=O)c1nn(CC2CCCCC2)c2ccccc12)C(N)=O
Concentration in plasma: 0.4 to 14.3 ng/mL
Whole blood concentrations: 0.6 to 10 ng/mL

N#CCCCCn1cc(C(=O)c2cccc3ccccc23)c2ccccc21 [AM-2232]
Concentration in postmortem plasma samples: 0.86 ng/mL
